# Measured values reported in US6818215B2, “Antibodies to senescent cell-derived inhibiters of DNA synthesis” (priority 1991, dated 2004).
# B1: 72-77: SDI-1 mutant with amino acids 72-77 deleted, HA tagged (protein)
# chain: MSEPAGDVRQNPCGSKACRRLFGPVDSEQLSRDCDALMAGCIQEARERWNFDFVTETPLEGDFAWERVRGLPRGLPTGPRRGRDELGGGRRPGTSPALLQGTAEEDHVDLSLSCTLVPRSGEQAEGSPGGPGDSQGRKRRQTSMTDFYHSKRRLIFSKRKP
# modifications: left off: small tags and cut ends
# notes: SDI-1 mutant with amino acids 72-77 deleted, HA tagged
# Experiments:
# cyclin/cdk2 complexes = biological target: T1, cyclin/cdk2 complexes (Homo sapiens, UniProt P24941); assay: Histone H1 kinase activity of cyclin/cdk2 complexes immunoprecipitated from HeLa cell extracts; type: biochemical; conditions: complexes immunoprecipitated by cdk2 antisera
# T1 construct: immunoprecipitated from HeLa cell extracts by cdk2 antisera; endogenous in cells; host or cells: HeLa cell extracts, immunoprecipitated with cdk2 antisera
# Description: The physiological significance of inhibition of cell proliferation by overexpression of SDI-1 is strengthened by the finding that SDI-1 can inhibit the kinase activity of cyclin/cdk2 complexes.
# […]
# young cells = assay: Cellular uptake of GST-SDI-1 fusions and quiescence; type: cell-based
# HepG2 cells [1] = assay: Cell Proliferation Kit-XTT, metabolic activity; type: cell-based, Human; conditions: 20 nM; 72 h
# Description: The effect of 9NC (5 to 80 nM) on cell proliferation and DNA synthesis was evaluated by the Cell Proliferation Kit-XTT (Boehringer Mannheim Corp., IN), a non-radioactive, calorimetric ELISA assay which reflects mitochondrial dehydrogenase activity. The assay is based on the cleavage of the yellow tetrazolium salt XTT to form an orange formazan dye by dehydrogenase activity in active mitochondria. This conversion occurs only in living cells and correlates with their overall metabolic activity.
# (§1) Human hepatoblastoma cells, HepG2 cells were obtained from the American Type Culture Collection and maintained in RPMI-1640 medium (GIBCO, Grand Island, N.Y.) supplemented with 10% fetal bovine serum (GIBCO), 100 units/ml of penicillin, […] of streptomycin, […] of amphotericin (Sigma Chemical Co.), and 4 mM L-glutamine (GIBCO). The cell cultures were incubated at 37° C. in a humidified CO2 (5%) atmosphere. The cell number in untreated and 9NC-treated cultures was determined with the aid of cell counter (Coulter Electric, Inc., Hialeah, Fla.) and cell viability was monitored by trypan blue dye exclusion.
# 9NC was semisynthesized from CPT and purified as described by Wani, M. C. et al. (J. Med. Chem. 29:2358-2363 (1986)). A fine suspension of 9NC (10 μM) was prepared in polyethylene glycol (PEG 400; Aldrich, Milwaukee, Wis.), divided into small aliquots and stored at −80° C. until used. […]
# HepG2 cells [2] = assay: BrdU incorporation ELISA, DNA synthesis; type: cell-based, Human; conditions: 20 nM; 72 h
# Description: as §1
# DNA synthesis was measured by 5-bromo-2′-deoxy-uridine (BrdU) incorporation into cellular DNA following 24 h and 72 h. treatment with 9NC using the Cell Proliferation Assay Kit-BrdU/ELISA (Boehringer Mannheim Corp.). Inhibition of DNA synthesis correlated with the length of 9NC treatment and the concentration of 9NC in the cell culture.
# HepG2 cells [3] = assay: Cell number by cell counter; type: cell-based, Human; conditions: 20 nM; 72 h
# Description: as §1
# This inhibitory effect was not associated with cell death as assessed by trypan blue dye exclusion.
# HepG2 cells [4] = assay: Phase contrast microscopy, cell size; type: cell-based, Human; conditions: 9NC-treated cells
# Description: After 3 to […] of treatment the morphology of the cells remained stable with very little change during the three to four week culture period. Overall, cells appeared to be healthy and metabolically active, and resembled the morphology of primary human hepatocytes grown on plastic surfaces. Virtually no cell proliferation was observed following removal of 9NC and the cells maintained a differentiated phenotype without growth.
# [5] = test system: SDI-1 mRNA in HepG2 cells; assay: Northern blot of SDI-1 mRNA (SDI-1/GAPDH) in 9NC-treated cells; type: cell-based, Human
# Description: Therefore, initial studies to evaluate the levels of SDI-1 were performed with low doses of 9NC. Total RNA was isolated from HepG2 cells treated with 5 nM and 20 nM 9NC for 72 h and the levels of SDI-1 mRNAs expression in cells were examined by Northern blot hybridization analysis. […] The relative amount of SDI-1 mRNA in each sample was calculated as the ratio of SDI-1/GAPDH.
# Caffeine abolishes G2 cell cycle checkpoint induced by DNA-damaging agents (Traganos, F. et al., Canc. Res. 53:4613-4618 (1993); Lau, C. C. et al., Proc. Natl. Acad. Sci. (U.S.A.) 79:2942-2946 (1982)). To assess the specificity of SDI-1 induction by 9NC, the levels of SDI-1 expressions were evaluated via Northern blot analysis after simultaneous addition of caffeine (1 mM) and 9NC. […] To establish the kinetics of 9NC-induced upregulation of SDI-1 gene, the cells cultured for 24 h in control medium were treated with 20 nM of 9NC for 0.5 h, 1.5 h, 3 h, 6 h, 12 h, and 24 h respectively.
# SDI-1 mRNA = assay: Northern analysis of SDI-1 RNA after DNA damaging / growth arrest agents; conditions: bleomycin 75 μg/ml 4 hr; etoposide 400 μM 8 hr; H2O2 400 μM 1 hr; MMS 100 μg 4 hr; Mitomycin C 5 μg/ml 30 hr; CdCl2 250 μM 1 hr; hydroxyurea 2 mM 24 hr; prostaglandin A2 10 μg/ml 24 hr
# Description: (§2) To evaluate the effect of DNA damaging agents on SDI mRNA production, normal human neonatal foreskin fibroblast cells (strain HCA2); an immortalized cell line (TE85, obtainable from the American Type Culture Collection, Rockville, Md., US), and the above-described MDAH 041 cell lines were employed. All cells were cultured in Eagle's minimal essential medium with Earl's salts plus 10% fetal bovine serum (Gibco BRL, Gaithersburg, Md., US) in 5% CO2 at 37° C., or in Hanks salts plus 10% fetal bovine serum at 37° C. HCA2 cells achieve approximately 80 population doublings before becoming senescent. The cells were used at population doubling 27 or less.
# (§3) For UV irradiation, cells were cultured in 150 cm^2 tissue culture dishes. Immediately prior to treatment the medium was removed and the dishes, without lids, were placed in a Stratagene (La Jolla, Calif., US) StratalinkerUV cross-linking device and irradiated with a dose of 30 J/m^2. Fresh serum-supplemented medium was then added and the cells were incubated at 37° C., 5% CO2. γ-irradiation was performed on cells in complete cell culture medium in 25 cm^2 tissue culture flasks, using a fixed ^137Cs source. The dose rate was 4.21 Gy/min. Exposure was to 4 Gy.
# (§4) Tritiated thymidine was added 16 hours following each such treatment and the cells were incubated for 8 hours, fixed and processed for autoradiography; as described above. RNA was harvested 4 or 24 hours post treatment using RNAzol B (Cinna/Biotecx, Houston, Tex.) according to the manufacturer's protocol. 10-20 μg of RNA was separated on a 1.2% agarose gel with 20% formaldehyde, transferred to a Gene screen plus (EN, Boston, Mass.) membrane, probed, and quantitated. Fold induction was determined by comparing treated samples with untreated controls. Controls were mock treated cells put through the same washing, media change, transportation, and inadvertent temperature fluctuation as those receiving treatment. Controls for agents dissolved in ethanol or dimethyl sulfoxide were exposed to the same concentration of the solvent alone. SDI-1 RNA values were normalized to GAPBH levels.
# [6] = test system: normal human neonatal foreskin fibroblast cells (strain HCA2); assay: Growth arrest by tritiated thymidine incorporation after DNA damaging / growth arrest agents; type: cell-based; conditions: doses as in Table 10; tritiated thymidine added 16 hours after treatment for 8 hours
# Description: as §2, §3, §4
# [7] = test system: SDI-1 message in MDAH 041; assay: SDI-1 message level after agents in cells lacking functional p53; type: cell-based, human; conditions: MDAH 041 (no p53); agents of Table 10
# Description: as §2, §4
# (§5) This gene also requires functional p53 for induction by γ-irradiation but not by most other agents (Zhan, Q. et al., Molec. Cell. Biol. 13:4242-4250 (1993)). GADD45 is a member of a family of genes that were identified based upon their induction by both growth arrest and DNA damage (Fornace, A. J. et al., Molec. Cell. Biol. 9:4196-4203 (1989)). […] The above methods can be used to identifiy such additional regulators.
# SDI-1 message in TE85 = assay: as above; type: cell-based, human; conditions: TE85 (mutant p53); agents of Table 10
# Description: as §2, §4, §5
# [8] = test system: cells in medium containing 0.5% FBS; assay: SDI-1 antisense oligonucleotide, tritiated thymidine incorporation in low serum; type: cell-based; conditions: 1, 2 or 5 μM on Days 1, 3, 5; harvested day 7
# Description: Cells were cultured in medium containing 10% fetal bovine serum (FBS) for approximately one week, at which time the medium was replaced with medium containing 0.5% FBS. The cells were divided into control cells and experimental cells. On Day 1, experimental cells were provided with either 1, 2 or 5 μM of the above-described oligonucleotide; Control cells received no oligonucleotide. On Day 3, and again on Day 5, all cells received fresh medium containing 0.5% FBS; experimental cells received additional oligonucleotides (1, 2 or 5 μM). On Day 6, tritiated thymidine was added to the culture media and the cells were harvested on day 7.
# cdk2 protein = biological target: T2, cdk2 protein (Homo sapiens, UniProt P24941); assay: Binding of in vitro translated SDI-1 deletion mutants to purified cdk2, anti-cdk2 immunoprecipitation; conditions: 45 μl translation product, 1 ug cdk2, 4° C.
# T2 construct: host or cells: baculovirus expression system
# Description: To determine whether the DNA synthesis inhibition caused by these mutants was occurring through inhibition of cdk kinases, the binding of in vitro translated deletion mutant proteins products with purified cdk2protein was examined. Thus, the various deletion mutants of SDI-1 were translated in reticulocyte lysates (Promega) using pBluescript based plasmids as transcription templates for the T7 RNA polymerase. For in vitro binding, 45 μl of the translation product was added to 500 μl binding buffer (50 mM Tris/HCl, pH 7.5, 120 mM NaCl, 2 mM EDTA, 0.1% NP-40, 1 mM NaF, 0.1 m.M sodium vanidate, 5 μg/ml leupeptin, 5 μg/ml soybean trypsin inhibitor, 5 μg/ml aprotinin) containing 1 ug cdk2 protein purified from a bacculovirus expression system. The mixture was gently rocked for 1 hour at 4° C. and then 7.5 μg anti-cdk2 rabbit polyclonal antibody was added. Mixing was continued for 1 hour at 4° C. The immunocomplex was absorbed by incubation with 40 μl protein G plus A beads for 2 hr. The matrices were then washed three times with 0.5 ml of binding buffer prior to electrophoresis and autoradiography.
molecule,measurement,setting,value
"GST-SDI-1 fusion protein: Schistosoma japonicum GST 1-226, hinge Pro-Arg-Gly-Asp-Pro-Pro-Ala, SDI-1; SEQ ID NO:11; printed as SDI-1 in Table 8",amount giving half maximal inhibition of histone H1 kinase activity,cyclin/cdk2 complexes,250 ng
same,quiescence of exposed young cells,young cells,exhibited quiescence
same,detection of fusion protein within the cells,young cells; provided to young cells,detectable within the cells
CC[C@@]1(O)C(=O)OCc2c1cc1n(c2=O)Cc2cc3c([N+](=O)[O-])cccc3nc2-1 [9NC],suppression of metabolic activity,HepG2 cells [1],approximately 20%
same,decrease in DNA synthesis,HepG2 cells [2],at least 4 fold
same,decrease in cell numbers,HepG2 cells [3],at least 2 fold
same,increased cell size,HepG2 cells [4],2 to 5 fold
same,time at which SDI-1 gene expression reached maximum,"[5]; 20 nM, 0.5-24 h",24 h
same,increase in SDI-1 expression (SDI-1/GAPDH),"[5]; 20 nM, 72 h",At least 3 fold
"[Cl][Cd][Cl] [CdCl2, cadmium chloride]",SDI-1 Level (Fold induction of SDI-1 at 24 hour level),SDI-1 mRNA,1.3 Fold induction
same,% Growth Arrest,[6],0%
"OO [H2O2, hydrogen peroxide]",% Growth Arrest,[6],95%
same,SDI-1 message level (Control = 1),[7],3.3
same,SDI-1 message level (Control = 1),SDI-1 message in TE85,4.0
COc1cc([C@@H]2c3cc4c(cc3[C@@H](O[C@@H]3O[C@@H]5CO[C@@H](C)O[C@H]5[C@H](O)[C@H]3O)[C@H]3COC(=O)[C@H]23)OCO4)cc(OC)c1O [etoposide],% Growth Arrest,[6],100%
"COS(C)(=O)=O [MMS, methyl methane sulfonate]",% Growth Arrest,[6],53%
CCCCC[C@H](O)/C=C/[C@H]1C=CC(=O)[C@@H]1C/C=C\CCCC(=O)O [prostaglandin A2],SDI-1 Level (Fold induction of SDI-1 at 24 hour level),SDI-1 mRNA,6.1 Fold induction
same,% Growth Arrest,[6],100%
AGCCGGTTCTGACATGGCG (chemistry not given here) [antisense oligonucleotide],tritiated thymidine incorporated into DNA relative to control cells,[8],increase
"CO[C@@]12[C@H](COC(N)=O)C3=C(C(=O)C(C)=C(N)C3=O)N1C[C@@H]1N[C@@H]12 [Mitomycin C, mitomycin C]",SDI-1 Level (Fold induction of SDI-1 at 24 hour level),SDI-1 mRNA,2.8 Fold induction
same,% Growth Arrest,[6],100%
same,SDI-1 message level (Control = 1),SDI-1 message in TE85,2.5
NC(=O)NO [hydroxyurea],% Growth Arrest,[6],100%
same,SDI-1 message level (Control = 1),[7],2.5
same,SDI-1 message level (Control = 1),SDI-1 message in TE85,7.5
Cn1c(=O)c2c(ncn2C)n(C)c1=O [caffeine],effect on SDI-1 expression,[5]; caffeine (1 mM) alone,no appreciable effect
same,effect on 9NC-dependent induction of SDI-1 expression,[5]; simultaneous addition of caffeine (1 mM) and 9NC,abrogated
bleomycin,SDI-1 Level (Fold induction of SDI-1 at 24 hour level),SDI-1 mRNA,11.8 Fold induction
same,% Growth Arrest,[6],100%
B1,binding to purified cdk2 protein,cdk2 protein,bound cdk2 protein efficiently
